The values below come from PMC12466757, “1,5-Diarylidene-4-Piperidones as Promising Antifungal Candidates Against Cryptococcus neoformans” (Antibiotics, 2025).

≈ marks a conversion by molar mass, not a printed value.

Series [1] can be described thus: in vitro. The note with it: human.
A short description of series [2]: in vitro. The note with it: human. The source holds these as a separate data set.
Series [3] can be described thus: in vitro. Particulars: human, Caco-2.
The nature of series [4]: in vitro. Particulars: human. This is another data set of the same source.
The nature of series [5]: in vitro. The note with it: human. This is another data set of the same source.
Series [6] can be described thus: in vitro. Particulars: human. This is another data set of the same source.
For series [7], the system named is Cryptococcus neoformans (DSM11959). Nature of the series: MIC assay against C. neoformans. It counts as cell-based. The note with it: Cryptococcus neoformans, DSM11959, C. neoformans DSM 11959; lowest concentration totally inhibiting growth; 35 °C, 24–48 h.
Series [8] relates to Enterobacter cloacae (DSM 30054). Nature of the series: Antibacterial liquid MIC determination, E. cloacae. It counts as cell-based. Particulars: DSM30054, Gram-negative.
The test system of series [9] is Acinetobacter baumannii (DSM 30007). The experiment in a line: Antibacterial liquid MIC determination, A. baumannii. It counts as cell-based. Particulars: DSM30007, Gram-negative.

Turning to `CCCCOc1ccc(/C=C2\CN(C3CC3)C/C(=C\c3ccc(OCCCC)cc3OCCCC)C2=O)c(OCCCC)c1` [4h], the CC50 at 48 h in the series “in vitro [1]”, in “in vitro [2]”, in “in vitro [3]”, in “in vitro [4]”, in “in vitro [5]” and in “in vitro [6]” was over 1000 µM throughout. Moreover, inhibition of growth in series [7] (MIC) required 250 µM (≈ 151 µg/mL).

Regarding `CCN1C/C(=C\c2ccc[nH]2)C(=O)/C(=C/c2ccc[nH]2)C1` [2k], the MIC in series [8], in [9] and in series [7] was 250 µM (≈ 70.3 µg/mL) throughout.

A word on the MIC: it is the lowest concentration found to suppress growth. Lower therefore signals greater potency.
